Experiments:
Experiment in all cases: Competitive radioligand binding, 125I-Tyr-SRIF 14, membrane preparations
[1] = target: human somatostatin receptor SSTR1 (Homo sapiens (Human), UniProt P30872); settings: competitive binding vs 125I-Tyr-SRIF 14, human SSTR1 membranes; read-out: SST1
Protocol: (§1) Respective membrane receptor preparations were prepared in assay buffer (25 mM HEPES, 10 mM MgCl2, 1 mM CaCl2, 0.5% BSA, pH=7.4) at a 1:150 dilution. […] Binding assays were performed in triplicate for each concentration of ligand in a total volume of 200 μL radioligand (25 μL ligand, 25 μL radioligand, 150 μL receptors) and incubated at room temperature for 90 minutes using a shaking table. Binding was terminated by filtration through GF/B glass fiber filters that were presoaked in 0.5% polyethyleneimine for a minimum of 4 hours. Filters were washed 9× with 1000 μL ice cold wash buffer (50 mM Tris-HCl, pH=7.4, 0.2% BSA). Filters were scored, transferred into plastic test tubes and counted in a gamma counter (Wizard2, Perkin-Elmer). Determination of the Ki for each compound was performed using non-linear regression with GraphPad PRISM-5 software (GraphPad Software, Inc., La Jolla, Calif.).

[2] = target: human somatostatin receptor SSTR5 (Homo sapiens (Human), UniProt P35346); settings: competitive binding vs 125I-Tyr-SRIF 14, human SSTR5 membranes; read-out: SST5
Protocol: as §1

[3] = target: human somatostatin receptor SSTR2A (Homo sapiens (Human), UniProt P30874); settings: competitive binding vs 125I-Tyr-SRIF 14, human SSTR2A membranes; read-out: SST2
Protocol: as §1

[4] = target: human somatostatin receptor SSTR3 (Homo sapiens (Human), UniProt P32745); settings: competitive binding vs 125I-Tyr-SRIF 14, human SSTR3 membranes; read-out: SST3
Protocol: Competitive radioligand binding experiments were performed using MEMBRANE TARGET Systems (Perkin-Elmer, Boston, Mass.) for human somatostatin receptors: SSTR1 (ES-520-M400UA), SSTR2A (ES-521-M400UA), SSTR3 (ES523-M400UA), SSTR4 (ES-524-M400UA) and SSTR5 (ES-522-M400UA) receptors. (See Table 1). Respective membrane receptor preparations were prepared in assay buffer (25 mM HEPES, 10 mM MgCl2, 1 mM CaCl2, 0.5% BSA, pH=7.4) at a 1:150 dilution. Binding assays were performed using 1251-Tyr-SRIF 14 (Perkin-Elmer, NEX 3890) dissolved in 1 mM HCl. Binding assays were performed in triplicate for each concentration of ligand in a total volume of 200 μL radioligand (25 μL ligand, 25 μL radioligand, 150 μL receptors) and incubated at room temperature for 90 minutes using a shaking table. Binding was terminated by filtration through GF/B glass fiber filters that were presoaked in 0.5% polyethyleneimine for a minimum of 4 hours. Filters were washed 9× with 1000 μL ice cold wash buffer (50 mM Tris-HCl, pH=7.4, 0.2% BSA). Filters were scored, transferred into plastic test tubes and counted in a gamma counter (Wizard2, Perkin-Elmer). Determination of the Ki for each compound was performed using non-linear regression with GraphPad PRISM-5 software (GraphPad Software, Inc., La Jolla, Calif.).

Chain of human somatostatin receptor SSTR2A (P30874 whole entry): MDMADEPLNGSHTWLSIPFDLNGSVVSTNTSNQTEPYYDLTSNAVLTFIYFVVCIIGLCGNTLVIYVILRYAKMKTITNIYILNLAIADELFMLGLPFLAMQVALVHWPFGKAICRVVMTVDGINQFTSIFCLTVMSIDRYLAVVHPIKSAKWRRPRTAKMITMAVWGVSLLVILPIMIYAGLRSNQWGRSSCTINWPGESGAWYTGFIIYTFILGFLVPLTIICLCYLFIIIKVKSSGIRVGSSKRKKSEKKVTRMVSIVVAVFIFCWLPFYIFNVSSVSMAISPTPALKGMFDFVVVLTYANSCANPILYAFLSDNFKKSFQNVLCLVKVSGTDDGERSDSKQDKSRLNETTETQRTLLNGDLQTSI

Q: How did the Ki [1] turn out when `c1ccc(CSc2nnc(-c3c[nH]c4ccccc34)n2CCCc2c[nH]cn2)cc1` [AH-1-86, 3-(4-(3-(1H-imidazol-4-yl)propyl)-5-(benzylthio)-4H-1,2,4-triazol-3-yl)-1H-indole] was run?
A: The Ki was greater than 10 µM.

Q: And the Ki [2]?
A: Its Ki is greater than 10 µM.

Q: `Clc1cccc(Cc2nnc(CCc3c[nH]c4ccccc34)n2CCCc2c[nH]cn2)c1` [BN-VI-56, 3-(2-(4-(3-(1H-Imidazol-4-yl)propyl)-5-(3-chlorobenzyl)-4H-1,2,4-triazol-3-yl)ethyl)-1H-indole] was tested. Which Ki [1] did it give?
A: The Ki was 6.93 µM.

Q: What about the Ki [3] of the same compound?
A: The Ki was greater than 10 µM.

Q: What about the Ki [2] of the same compound?
A: Its Ki is greater than 10 µM.

Q: And the Ki [4]?
A: Its Ki is greater than 10 µM.

Q: For `COc1cccc(Cc2nnc(CCc3c[nH]c4ccccc34)n2CCCc2c[nH]cn2)c1` [BN-VI-61, 3-(2-(4-(3-(1H-Imidazol-4-yl)propyl)-5-(3-methoxybenzyl)-4H-1,2,4-triazol-3-yl)ethyl)-1H-indole], which Ki [1] is on record?
A: Its Ki is greater than 10 µM.

Q: What about the Ki [3] of the same compound?
A: The Ki was greater than 10 µM.

Q: What about the Ki [2] of the same compound?
A: Its Ki is greater than 10 µM.

Q: And the Ki [4]?
A: Its Ki is greater than 10 µM.

Q: For `Clc1ccc(Cc2nnc(CCc3c[nH]c4ccccc34)n2CCCc2c[nH]cn2)cc1` [BN-VI-62, 3-(2-(4-(3-(1H-Imidazol-4-yl)propyl)-5-(4-chlorobenzyl)-4H-1,2,4-triazol-3-yl)ethyl)-1H-indole], which Ki [3] is on record?
A: Its Ki is greater than 10 µM.

Q: How did the Ki [3] turn out when `N[C@H](Cc1c[nH]c2ccccc12)c1nnc(Cc2cccc(Cl)c2)n1CCCc1c[nH]cn1` [BN-VI-87, (R)-1-(4-(3-(1H-Imidazol-4-yl)propyl)-5-(3-chlorobenzyl)-4H-1,2,4-triazol-3-yl)-2-(1H-indol-3-yl)ethanamine] was run?
A: The Ki was greater than 10 µM.

Q: How did the Ki [3] turn out when `Clc1cc(Cl)cc(Cc2nnc(CCc3c[nH]c4ccccc34)n2CCCc2c[nH]cn2)c1` [BN-VI-89, 3-(2-(4-(3-(1H-Imidazol-4-yl)propyl)-5-(3,5-dichlorobenzyl)-4H-1,2,4-triazol-3-yl)ethyl)-1H-indole] was run?
A: Its Ki is 6.98 µM.

Q: Which Ki [1] does the source give for `FC(F)(F)c1cccc(Cc2nnc(CCc3c[nH]c4ccccc34)n2CCCc2c[nH]cn2)c1` [BN-VI-97, 3-(2-(4-(3-(1H-Imidazol-4-yl)propyl)-5-(3-(trifluoromethyl)benzyl)-4H-1,2,4-triazol-3-yl)ethyl)-1H-indole] here?
A: Its Ki is 5.31 µM.

Q: What about the Ki [3] of the same compound?
A: Its Ki is greater than 10 µM.

Q: And the Ki [2]?
A: The Ki was greater than 10 µM.

Q: And the Ki [4]?
A: Its Ki is greater than 10 µM.

Q: For `Clc1ccccc1Cc1nnc(CCc2c[nH]c3ccccc23)n1CCCc1c[nH]cn1` [MM-I-17, 3-(2-(4-(3-(1H-Imidazol-4-yl)propyl)-5-(2-chlorobenzyl)-4H-1,2,4-triazol-3-yl)ethyl)-1H-indole], which Ki [1] is on record?
A: The Ki was greater than 10 µM.

Q: What about the Ki [3] of the same compound?
A: Its Ki is greater than 10 µM.

Q: And the Ki [2]?
A: Its Ki is greater than 10 µM.

Q: And the Ki [4]?
A: The Ki was greater than 10 µM.

Q: `COc1ccccc1Cc1nnc(CCc2c[nH]c3ccccc23)n1CCCc1c[nH]cn1` [MM-I-21, 3-(2-(4-(3-(1H-Imidazol-4-yl)propyl)-5-(2-methoxybenzyl)-4H-1,2,4-triazol-3-yl)ethyl)-1H-indole] was tested. Which Ki [1] did it give?
A: The Ki was greater than 10 µM.

Q: What about the Ki [3] of the same compound?
A: The Ki was greater than 10 µM.

Q: And the Ki [2]?
A: The Ki was greater than 10 µM.

Q: What about the Ki [4] of the same compound?
A: The Ki was greater than 10 µM.

Q: `c1ccc(-c2ccc(Cc3nnc(CCc4c[nH]c5ccccc45)n3CCCc3c[nH]cn3)cc2)cc1` [MM-I-26, 3-(2-(4-(3-(1H-Imidazol-4-yl)propyl)-5-([1,1′-biphenyl]-4-ylmethyl)-4H-1,2,4-triazol-3-yl)ethyl)-1H-indole] was tested. Which Ki [3] did it give?
A: Its Ki is greater than 10 µM.

Q: Which results are given for `FC(F)(F)Oc1cccc(Cc2nnc(CCc3c[nH]c4ccccc34)n2CCCc2c[nH]cn2)c1` [MM-I-36, 3-(2-(4-(3-(1H-imidazol-4-yl)propyl)-5-(3-(trifluoromethoxy)benzyl)-4H-1,2,4-triazol-3-yl)ethyl)-1H-indole]?
A: Ki [1]: 4.08 µM; Ki [3]: > 10 µM

Q: With `O=[N+]([O-])c1cccc(Cc2nnc(CCc3c[nH]c4ccccc34)n2CCCc2c[nH]cn2)c1` [MM-I-43, 3-(2-(4-(3-(1H-Imidazol-4-yl)propyl)-5-(3-nitrobenzyl)-4H-1,2,4-triazol-3-yl)ethyl)-1H-indole] as the compound, how does the Ki [3] read?
A: The Ki was greater than 10 µM.

Q: `c1ccc(COc2cccc(Cc3nnc(CCc4c[nH]c5ccccc45)n3CCCc3c[nH]cn3)c2)cc1` [MM-I-53, 3-(2-(4-(3-(1H-imidazol-4-yl)propyl)-5-(3-(benzyloxy)benzyl)-4H-1,2,4-triazol-3-yl)-ethyl)-1H-indole] was tested. Which Ki [3] did it give?
A: The Ki was greater than 10 µM.

Q: For `N#Cc1cccc(Cc2nnc(CCc3c[nH]c4ccccc34)n2CCCc2c[nH]cn2)c1` [MM-I-63, 3-((4-(3-(1H-imidazol-4-yl)propyl)-5-(2-(1H-indol-3-yl)ethyl)-4H-1,2,4-triazol-3-yl)methyl)benzonitrile], which Ki [3] is on record?
A: The Ki was greater than 10 µM.

Q: Which results are given for `FC(F)(F)c1cccc(Cc2nnc(Cc3c[nH]c4ccccc34)n2CCCc2c[nH]cn2)c1` [MM-I-66, 3-((4-(3-(1H-imidazol-4-yl)propyl)-5-(3-(trifluoromethyl)benzyl)-4H-1,2,4-triazol-3-yl)methyl)-1H-indole]?
A: Ki [1]: 0.588 µM; Ki [3]: 2.33 µM; Ki [2]: > 10 µM; Ki [4]: > 10 µM

Q: What does the source list for `CS(=O)(=O)c1cccc(Cc2nnc(Cc3c[nH]c4ccccc34)n2CCCc2c[nH]cn2)c1` [MM-I-72, 3-((4-(3-(1H-imidazol-4-yl)propyl)-5-(3-(methylsulfonyl)benzyl)-4H-1,2,4-triazol-3-yl)methyl)-1H-indole]?
A: Ki [1]: 0.661 µM; Ki [3]: > 10 µM

Q: `Fc1ccc2c(Cc3nnc(Cc4cccc(Br)c4)n3CCCc3c[nH]cn3)c[nH]c2c1` [MM-I-83, 3-((4-(3-(1H-imidazol-4-yl)propyl)-5-(3-bromobenzyl)-4H-1,2,4-triazol-3-yl)methyl)-6-fluoro-1H-indole] was tested. Which Ki [3] did it give?
A: The Ki was 2.08 µM.

Q: With `Fc1ccc2c(Cc3nnc(Cc4cccc(C(F)(F)F)c4)n3CCCc3c[nH]cn3)c[nH]c2c1` [MM-I-87, 3-((4-(3-(1H-imidazol-4-yl)propyl)-5-(3-(trifluoromethyl)benzyl)-4H-1,2,4-triazol-3-yl)methyl)-6-fluoro-1H-indole] as the compound, how does the Ki [3] read?
A: Its Ki is 3.28 µM.

Q: `Fc1ccc2c(Cc3nnc(Cc4ccccc4)n3CCCc3c[nH]cn3)c[nH]c2c1` [MM-I-89, 3-((4-(3-(1H-imidazol-4-yl)propyl)-5-benzyl-4H-1,2,4-triazol-3-yl)methyl)-6-fluoro-1H-indole] was tested. Which Ki [3] did it give?
A: The Ki was greater than 10 µM.

Q: How did the Ki [3] turn out when `Fc1ccc(Cc2nnc(Cc3c[nH]c4ccccc34)n2CCCc2c[nH]cn2)cc1` [SK-I-16, 3-((4-(3-(1H-imidazol-4-yl)propyl)-5-(4-fluorobenzyl)-4H-1,2,4-triazol-3-yl)methyl)-1H-indole] was run?
A: Its Ki is greater than 10 µM.

Q: With `Clc1ccc(Cc2nnc(Cc3c[nH]c4ccccc34)n2CCCc2c[nH]cn2)cc1` [SK-I-22, 3-((4-(3-(1H-imidazol-4-yl)propyl)-5-(4-chlorobenzyl)-4H-1,2,4-triazol-3-yl)methyl)-1H-indole] as the compound, how does the Ki [3] read?
A: Its Ki is 7.69 µM.

Q: What does the source list for `COc1ccc(Cc2nnc(Cc3c[nH]c4ccccc34)n2CCCc2c[nH]cn2)cc1` [SK-I-23, 3-((4-(3-(1H-imidazol-4-yl)propyl)-5-(4-methoxybenzyl)-4H-1,2,4-triazol-3-yl)methyl)-1H-indole]?
A: Ki [1]: 2.58 µM; Ki [3]: > 10 µM; Ki [2]: > 10 µM; Ki [4]: > 10 µM

Q: How did the Ki [1] turn out when `COc1ccc2[nH]cc(Cc3nnc(Cc4ccccc4)n3CCCc3c[nH]cn3)c2c1` [SK-I-53, 3-((4-(3-(1H-imidazol-4-yl)propyl)-5-benzyl-4H-1,2,4-triazol-3-yl)methyl)-5-methoxy-1H-indole] was run?
A: The Ki was 1.72 µM.

Q: What about the Ki [3] of the same compound?
A: Its Ki is 7.1 µM.

Q: What about the Ki [2] of the same compound?
A: Its Ki is greater than 10 µM.

Q: And the Ki [4]?
A: The Ki was greater than 10 µM.

Q: Which Ki [3] does the source give for `COc1ccc(Cc2nnc(CCc3c[nH]c4ccccc34)n2CCCc2c[nH]cn2)cc1` [SM-I-29, 3-(2-(4-(3-(1H-Imidazol-4-yl)propyl)-5-(4-methoxybenzyl)-4H-1,2,4-triazol-3-yl)ethyl)-1H-indole] here?
A: The Ki was greater than 10 µM.

Q: With `Cn1cc(CCc2nnc(Cc3cccc(C(F)(F)F)c3)n2CCCc2c[nH]cn2)c2ccccc21` [SM-I-76, 3-(2-(4-(3-(1H-imidazol-4-yl)propyl)-5-(3-(trifluoromethyl)benzyl)-4H-1,2,4-triazol-3-yl)ethyl)-1-methyl-1H-indole] as the compound, how does the Ki [3] read?
A: Its Ki is greater than 10 µM.

Q: `CS(=O)(=O)c1cccc(Cc2nnc(CCc3c[nH]c4ccccc34)n2CCCc2c[nH]cn2)c1` [SM-I-92, 3-(2-(4-(3-(1H-imidazol-4-yl)propyl)-5-(3-(methylsulfonyl)benzyl)-4H-1,2,4-triazol-3-yl)ethyl)-1H-indole] was tested. Which Ki [3] did it give?
A: Its Ki is greater than 10 µM.

Source: US11136312B2, “3,4,5-trisubstituted-1,2,4-triazoles and 3,4,5-trisubstituted-3-thio-1,2,4-triazoles and uses thereof” (Board of Trustees of Southern Illinois University, priority 2017, dated 2021)
